Patent US8951938B2, “Combinatorial rosamine library to detect cell-state switching” (New York University, priority 2007, dated 2015)
“Also recorded” adds a separate entry of the source.

Legend:
[1] = test system: RNA; assay: Analyte screening of rosamine library, fluorescence response
Description: (§1) The rosamine derivative compounds were screened toward 47 different analytes that include proteins, polysaccharides, nucleic acids, and metal ions. The stock solution of each dye (50 μL) in HEPES (20 mM, pH=7.4) or PBS (20 mM, pH=7.4) was prepared, and diluted with the each analyte (50 μL, 1.0 mg/mL or 200 μM) in the same buffer solution. The final dye concentration varied from 0.5 μM to 10 μM. The fluorescence intensity fold changes of each dye in the presence of analytes were calculated by comparing the fluorescence intensity at the maximum emission wavelength with/without the analyte.

[2] = test system: DNA; assay: as above
Description: as §1

CC1=CC(C)(C)N(C)c2ccc3c(=O)c4ccc(N)cc4n(C)c3c21 [J]
fluorescence response to RNA among 47 analytes [1]: selective response; also recorded: selective increase

CCN(CCCN(C)C)c1ccc2c(=O)c3ccc(N)cc3oc2c1 [L, 3-Amino-6-[(3-dimethylamino-propyl)-ethyl-amino]-xanthen-9-one]
fluorescence response to DNA among 47 analytes [2]: selective response; also recorded: selective increase
